The values below are quoted from earlier work in patent publication US20030004143A1, “Use of NSAIDs for prevention and treatment of cellular abnormalities of the female reproductive tract” (priority 2001, published 2003).

For one series, the system named is OPC cell lines. The conditions noted are these: all OPC cell lines tested.

With `O=C(c1ccccc1)c1ccc2n1CCC2C(=O)O` (stereo not shown) [ketorolac, (.+−.)5(benzoyl)-2,3-dihydro-1H-pyrrolizine-1carboxylic acid], the “OPC growth in vivo” value in the series with OPC is listed as “reduced OPC growth in vivo”. In addition, in the series with OPC cell lines, the IL-6 levels entry is “continuously and significantly decreased”; the IL-8 levels result is “continuously and significantly decreased”; the PGE2 production result is “continuously and significantly decreased”.
